From BindingDB's records for doi:10.1021/jm00007a008 (Glaxo Inc. Research Institute, 1995)

assay: Minimum concentration that produced 50% fragmentation of DNA was measured in the presence of excess calf thymus topoisomerase.

Row | Compound | IC50
1 | CC[C@@]1(O)C(=O)OCc2c1cc1n(c2=O)Cc2c-1nc1cnc(CN)cc1c2C [(S)-9-Aminomethyl-4-ethyl-4-hydroxy-11-methyl-1,12-dihydro-4H-2-oxa-6,8,12a-triaza-dibenzo[b,h]fluorene-3,13-dione] | 232 nM
2 | CCc1c2c(nc3cnc(C#CCN)cc13)-c1cc3c(c(=O)n1C2)COC(=O)[C@]3(O)CC [(S)-9-(3-Amino-prop-1-ynyl)-4,11-diethyl-4-hydroxy-1,12-dihydro-4H-2-oxa-6,8,12a-triaza-dibenzo[b,h]fluorene-3,13-dione] | 1080 nM
3 | CCc1c2c(nc3c[n+](C)ccc13)-c1cc3c(c(=O)n1C2)COC(=O)[C@]3(O)CC [(S)-4,11-Diethyl-4-hydroxy-8-methyl-3,13-dioxo-3,4,12,13-tetrahydro-1H-2-oxa-6,12a-diaza-8-azonia-dibenzo[b,h]fluorene; iodide] | 1460 nM
4 | CC[C@@]1(O)C(=O)OCc2c1cc1n(c2=O)Cc2c-1nc1c[n+]([O-])c(CN)cc1c2C [(S)-9-Aminomethyl-4-ethyl-4-hydroxy-11-methyl-8-oxy-1,12-dihydro-4H-2-oxa-6,8,12a-triaza-dibenzo[b,h]fluorene-3,13-dione] | 190 nM
5 | CCc1c2c(nc3cnc(C(=N)NO)cc13)-c1cc3c(c(=O)n1C2)COC(=O)[C@]3(O)CC [(S)-4,11-Diethyl-4,N-dihydroxy-3,13-dioxo-3,4,12,13-tetrahydro-1H-2-oxa-6,8,12a-triaza-dibenzo[b,h]fluorene-9-carboxamidine] | 71 nM
6 | CCc1c2c(nc3cnc(C(=N)N)cc13)-c1cc3c(c(=O)n1C2)COC(=O)[C@]3(O)CC [(S)-4,11-Diethyl-4-hydroxy-3,13-dioxo-3,4,12,13-tetrahydro-1H-2-oxa-6,8,12a-triaza-dibenzo[b,h]fluorene-9-carboxamidine] | 33 nM

assay: In vitro fragmentation of DNA in the presence of excess calf thymus topoisomerase.

Row | Compound | IC50
7 | CCc1c2c(nc3cnc(C#CCN(C)C)cc13)-c1cc3c(c(=O)n1C2)COC(=O)[C@]3(O)CC [(S)-9-(3-Dimethylamino-prop-1-ynyl)-4,11-diethyl-4-hydroxy-1,12-dihydro-4H-2-oxa-6,8,12a-triaza-dibenzo[b,h]fluorene-3,13-dione] | 1330 nM
8 | CC[C@@]1(O)C(=O)OCc2c1cc1n(c2=O)Cc2cc3cc[n+]([O-])cc3nc2-1 [(S)-4-Ethyl-4-hydroxy-8-oxy-1,12-dihydro-4H-2-oxa-6,8,12a-triaza-dibenzo[b,h]fluorene-3,13-dione] | 1180 nM
9 | CC[C@@]1(O)C(=O)OCc2c1cc1n(c2=O)Cc2c-1nc1cnc(C#CCN3CCOCC3)cc1c2C [(S)-4-Ethyl-4-hydroxy-11-methyl-9-(3-morpholin-4-yl-prop-1-ynyl)-1,12-dihydro-4H-2-oxa-6,8,12a-triaza-dibenzo[b,h]fluorene-3,13-dione] | 1110 nM
10 | CCOC(=O)c1cc2c(CC)c3c(nc2cn1)-c1cc2c(c(=O)n1C3)COC(=O)[C@]2(O)CC [(S)-4,11-Diethyl-4-hydroxy-3,13-dioxo-3,4,12,13-tetrahydro-1H-2-oxa-6,8,12a-triaza-dibenzo[b,h]fluorene-9-carboxylic acid ethyl ester] | 949 nM
11 | CCc1c2c(nc3cnc(Br)cc13)-c1cc3c(c(=O)n1C2)COC(=O)[C@]3(O)CC [(S)-9-Bromo-4,11-diethyl-4-hydroxy-1,12-dihydro-4H-2-oxa-6,8,12a-triaza-dibenzo[b,h]fluorene-3,13-dione] | 122 nM
12 | CC[C@@]1(O)C(=O)OCc2c1cc1n(c2=O)Cc2c-1nc1c[n+]([O-])c(CNC(=O)OC(C)(C)C)cc1c2C [((S)-4-Ethyl-4-hydroxy-11-methyl-3,13-dioxo-8-oxy-3,4,12,13-tetrahydro-1H-2-oxa-6,8,12a-triaza-dibenzo[b,h]fluoren-9-ylmethyl)-carbamic acid tert-butyl ester] | 217 nM
13 | CCc1c2c(nc3cnc(CN)cc13)-c1cc3c(c(=O)n1C2)COC(=O)[C@]3(O)CC [(S)-9-Aminomethyl-4,11-diethyl-4-hydroxy-1,12-dihydro-4H-2-oxa-6,8,12a-triaza-dibenzo[b,h]fluorene-3,13-dione] | 167 nM
14 | CC[C@@]1(O)C(=O)OCc2c1cc1n(c2=O)Cc2c-1nc1cnc(C#CCN)cc1c2C [(S)-9-(3-Amino-prop-1-ynyl)-4-ethyl-4-hydroxy-11-methyl-1,12-dihydro-4H-2-oxa-6,8,12a-triaza-dibenzo[b,h]fluorene-3,13-dione] | 505 nM
15 | CCc1c2c(nc3cnc(C(=O)NCCN(C)C)cc13)-c1cc3c(c(=O)n1C2)COC(=O)[C@]3(O)CC [(S)-4,11-Diethyl-4-hydroxy-3,13-dioxo-3,4,12,13-tetrahydro-1H-2-oxa-6,8,12a-triaza-dibenzo[b,h]fluorene-9-carboxylic acid (2-dimethylamino-ethyl)-amide] | 9330 nM
16 | CCc1c2c(nc3cnc(CCCN(C)C)cc13)-c1cc3c(c(=O)n1C2)COC(=O)[C@]3(O)CC [(S)-9-(3-Dimethylamino-propyl)-4,11-diethyl-4-hydroxy-1,12-dihydro-4H-2-oxa-6,8,12a-triaza-dibenzo[b,h]fluorene-3,13-dione] | 1490 nM
17 | CC[C@@]1(O)C(=O)OCc2c1cc1n(c2=O)Cc2cc3ccncc3nc2-1 [(S)-4-Ethyl-4-hydroxy-1,12-dihydro-4H-2-oxa-6,8,12a-triaza-dibenzo[b,h]fluorene-3,13-dione] | 383 nM
18 | CCc1c2c(nc3cnc(C#N)cc13)-c1cc3c(c(=O)n1C2)COC(=O)[C@]3(O)CC [(S)-4,11-Diethyl-4-hydroxy-3,13-dioxo-3,4,12,13-tetrahydro-1H-2-oxa-6,8,12a-triaza-dibenzo[b,h]fluorene-9-carbonitrile] | 268 nM
19 | CCc1c2c(nc3cnccc13)-c1cc3c(c(=O)n1C2)COC(=O)[C@]3(O)CC [(S)-4,11-Diethyl-4-hydroxy-1,12-dihydro-4H-2-oxa-6,8,12a-triaza-dibenzo[b,h]fluorene-3,13-dione] | 336 nM
